Experimental data reported in patent US20030134859A1 (SANKYO COMPANY, LIMITED, priority 2000, published 2003).
Structures can show the parent of a compound that is named as a salt.

target: T1, human PPAR γ 2 (Homo sapiens, UniProt P37231); test: PPAR γ transcriptional activity, luciferase reporter, test compound alone; assay type: cell-based; details: concentration indicating Emax/2, MG63 cells transfected with pSG5-hPPARg and pGV-P2-PPRE, 24 hr
T1 construct: expressed in transfected cells; host or cells: human osteosarcoma MG63, transiently co-transfected with pSG5-hPPARg and the reporter pGV-P2-PPRE
T1 sequence (P37231 1-505): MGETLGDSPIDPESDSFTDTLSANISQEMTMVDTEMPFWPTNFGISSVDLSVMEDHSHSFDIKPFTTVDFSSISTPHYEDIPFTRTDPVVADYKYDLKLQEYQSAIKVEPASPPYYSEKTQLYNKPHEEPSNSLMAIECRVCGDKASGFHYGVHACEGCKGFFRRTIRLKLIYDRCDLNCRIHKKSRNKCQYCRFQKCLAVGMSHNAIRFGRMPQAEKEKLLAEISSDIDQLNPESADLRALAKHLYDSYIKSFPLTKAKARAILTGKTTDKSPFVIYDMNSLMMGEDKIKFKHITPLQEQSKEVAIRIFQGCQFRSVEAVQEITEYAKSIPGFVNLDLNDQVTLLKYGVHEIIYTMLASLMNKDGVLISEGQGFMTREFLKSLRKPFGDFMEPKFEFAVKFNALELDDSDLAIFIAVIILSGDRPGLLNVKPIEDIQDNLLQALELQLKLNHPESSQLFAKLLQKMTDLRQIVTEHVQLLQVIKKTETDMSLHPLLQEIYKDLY
Experimental: The primers of the polymerase chain reaction (hereinafter “PCR”) were designed according to the gene sequence of human PPAR γ 2 (GenBANK accession No. D83233). In order to insert the genes into the BamHI site of the plasmid pSG5 ([…] CLONING SYSTEMS), Bgl II sites were added upstream and downstream of the genes encoding human PPAR γ 2 protein. For this, 2 kinds of polynucleotides shown in the sequence numbers 1 and 2 in the sequence table described below (hereinafter “S1” and “AS1”, respectively) were used as PCR primers.
In order to determine transcriptional activity via PPAR γ, 2 kinds of polynucleotides represented in sequence numbers 3 and 4 in the sequence table described below (hereinafter “S2” and “AS2”, respectively) were used for construction of the reporter plasmid having PPAR responsive element. The DNA fragment inserted was designed based on the gene sequence in the promoter region of rat acylCo-A oxidase (J. D. Tugwood, EMBO J., 11 (2), pp433-439 (1992)). For insertion of the DNA fragment into the reporter plasmid pGV-P2 (TOYO INK MFG CO., LTD), a NheI site and an XhoI site were added to the S2 and AS2, respectively.
Using cDNA library (Clontech) derived from human adipose tissue as a template, DNA oligomers S1 and AS1 that were synthesized in the procedure 1 as primers and Ex-Taq™ (TAKARA BIO INC.) as a thermostable DNA polymerase-PCR was carried out. As a result of the PCR, the c.a. 1500 bps DNA fragments were amplified. Each cycle consisted of incubation at 94° C. for 1 min for denaturation of the template, then at 55° C. for 30 sec for annealing of DNA oligomers the PCR primer, and then at 72° C. for 30 sec for extension of the chain. The obtained DNA fragments with approximately 1500 base pairs were digested at the Bgl II sites and were inserted into BamHI sites of pSG5. Thus a human PPAR γ expression plasmid named pSG5-hPPAR g was obtained. The nucleotide sequence of the inserted DNA fragment was confirmed to be identical sequence to the human PPAR γ 2 reported by the dideoxy method.
Vector pGV-P2 digestion products was prepared by digestion using the restriction enzymes, NheI and XhoI, and purified by 1.0% agarose-gel electrophoresis. The DNA oligomers, S2 and AS2 obtained in Procedure 2, were mixed together and were incubated in a hot bath at 94° C. for 1 min. After the annealing was partially broken, they were further incubated at 25° C. for 1 hr. Thus double-stranded DNA with annealing of S2 and AS2 was formed. Then, the terminus of the double-stranded DNA with annealing of S2 and AS2 was phosphorylated with DNA polynucleotide kinase (TOYOBO CO., LTD). After that, it was ligated to the pGV-P2 digestion products which were prepared previously using the NheI site and XhoI site. Thus the reporter plasmid pGV-P2-PPRE was obtained.
Using the plasmid obtained by the procedures 3 and 4, transformation of Escherichia coli HB-101 strain was carried out by conventional methods. HB-101 strain having the plasmid was incubated in L-broth medium (containing 10 g of trypton (Difco), 5 g of yeast extract (Difco), 5 g of sodium chloride in 1 L of aqueous solution) containing 100 μg/ml of ampicillin at 37° C. for 17 hrs. Then, each plasmid was purified by the alkaline-SDS method and employed for the gene transfection to mammalian cells. After mixing the pSG5-hPPARg, PGV-P2-PPRE and LipofectAMINE reagent (GIBCO BRL), the human osteosarcoma MG63 was transiently transfected. Then the cells were recovered. The recovered cells were plated on a 96-well plate so as to be 30,000 cells/well and cultured in a CO2 incubator (NAPCO) at 37° C. for 24 hr under the condition of 5% CO2, 95%-RH.
Various concentrations of the test compound alone were added to culturing medium of the cells prepared in the Procedure 5. After 24 hr of culturing, LT2.0 (TOYO INK MFG CO., LTD), a luciferase substrate, was added to the medium free culture plate. […]

| EC50 [nM] | SMILES |
| --- | --- |
| 220 | Cc1ccc(NC(=O)c2cc([N+](=O)[O-])ccc2Cl)cc1 [Example 1, N-(4-Methylphenyl)-(2-chloro-5-nitrophenyl)carboxamide] |
| 840 | O=C(Nc1ccc(-c2ccccc2)cc1)c1cc([N+](=O)[O-])ccc1Cl [Example 2, N-(4-Phenylphenyl)-(2-chloro-5-nitrophenyl)carboxamide] |
| 15 | Cc1cnc(NC(=O)c2cc([N+](=O)[O-])ccc2Cl)s1 [Example 4, N-(5-Methylthiazol-2-yl)-(2-chloro-5-nitrophenyl)carboxamide] |
| 400 | O=C(Nc1cccc(-c2ccccc2)c1)c1cc([N+](=O)[O-])ccc1Cl [Example 5, N-(3-Phenylphenyl)-(2-chloro-5-nitrophenyl)carboxamide] |
| 34 | COc1ccc(NC(=O)c2cc([N+](=O)[O-])ccc2Cl)cc1-c1ccccc1 [Example 6, N-(4-Methoxy-3-phenyl)phenyl-(2-chloro-5-nitrophenyl)carboxamide] |
| 270 | O=C(Nc1ccccc1-c1ccccc1)c1cc([N+](=O)[O-])ccc1Cl [Example 7, N-(2-Phenylphenyl)-(2-chloro-5-nitrophenyl)carboxamide] |
| 260 | O=C(Nc1ccc(-c2ccccn2)cc1)c1cc([N+](=O)[O-])ccc1Cl [Example 8, N-[4-(2-Pyridyl)phenyl]-(2-chloro-5-nitrophenyl)carboxamide] |
| 34 | CCCCCc1ccc(NC(=O)c2cc([N+](=O)[O-])ccc2Cl)cc1 [Example 16, N-(4-Pentylphenyl)-(2-chloro-5-nitrophenyl)carboxamide] |
| 2.1 | CCOC(=O)c1ccc(NC(=O)c2cc([N+](=O)[O-])ccc2Cl)cc1 [Example 26, N-(4-Ethoxycarbonylphenyl)-(2-chloro-5-nitrophenyl)carboxamide] |
| 4.4 | CC(C)(C)c1cc(NC(=O)c2cc([N+](=O)[O-])ccc2Cl)cc(C(C)(C)C)c1O [Example 29, N-(3,5-Di-t-butyl-4-hydroxyphenyl)-(2-chloro-5-nitrophenyl)carboxamide] |
| 1.9 | O=C(Nc1cccc(NS(=O)(=O)c2ccccc2)c1)c1cc([N+](=O)[O-])ccc1Cl [Example 30, N-(3-Benzensulfonylaminophenyl)-(2-chloro-5-nitrophenyl)carboxamide] |
| 25 | O=C(Nc1nc(-c2ccccc2)cs1)c1cc([N+](=O)[O-])ccc1Cl [Example 35, N-(4-Phenylthiazol-2-yl)-(2-chloro-5-nitrophenyl)carboxamide] |
| 510 | O=C(Nc1nc(-c2cccnc2)cs1)c1cc([N+](=O)[O-])ccc1Cl [Example 37, N-[4-(3-Pyridyl)thiazol-2-yl)-(2-chloro-5-nitrophenyl)carboxamide] |
| 250 | O=C(Nc1nc(-c2ccccn2)cs1)c1cc([N+](=O)[O-])ccc1Cl [Example 38, N-[4-(2-Pyridyl)thiazol-2-yl)-(2-chloro-5-nitrophenyl)carboxamide] |
| 39 | Cc1ccccc1-c1csc(NC(=O)c2cc([N+](=O)[O-])ccc2Cl)n1 [Example 39, N-[4-(2-Methylphenyl)thiazol-2-yl]-(2-chloro-5-nitrophenyl)carboxamide] |
| 11 | O=C(Nc1nc(-c2cccc3ccccc23)cs1)c1cc([N+](=O)[O-])ccc1Cl [Example 41, N-[4-(1-Naphthyl)thiazol-2-yl]-(2-chloro-5-nitrophenyl)carboxamide] |

| EC50 [nM] | SMILES |
| --- | --- |
| 810 | Cc1ccc(-c2nc(NC(=O)c3cc([N+](=O)[O-])ccc3Cl)sc2C)cc1Cl [Example 46, N-[4-(3-Chloro-4-methylphenyl)-5-methylthiazol-2-yl]-(2-chloro-5-nitrophenyl)carboxamide] |
| 420 | Cc1nc(NC(=O)c2cc([N+](=O)[O-])ccc2Cl)sc1C [Example 47] |
| 6.6 | Cc1cccc(NC(=O)c2cc([N+](=O)[O-])ccc2Cl)n1 [Example 51, N-(6-Methylpyridin-2-yl)-(2-chloro-5-nitrophenyl)carboxamide] |
| 5.6 | Cc1ccc(NC(=O)c2cc([N+](=O)[O-])ccc2Cl)nc1 [Example 52, N-(5-Methylpyridin-2-yl)-(2-chloro-5-nitrophenyl)carboxamide] |
| 4.7 | O=C(Nc1ccc2c3c(cccc13)CC2)c1cc([N+](=O)[O-])ccc1Cl [Example 54, N-(Acenaphthen-5-yl)-(2-chloro-5-nitrophenyl)carboxamide] |
| 260 | O=C(Nc1cccc2cccnc12)c1cc([N+](=O)[O-])ccc1Cl [Example 57, N-(8-Quinolinyl)-(2-chloro-5-nitrophenyl)carboxamide] |
| 20 | Nc1ccc(NC(=O)c2cc([N+](=O)[O-])ccc2Cl)cc1 [Example 58, N-(4-Aminophenyl)-(2-chloro-5-nitrophenyl)carboxamide mono-hydrochloride] |
| 120 | COC(=O)c1sccc1NC(=O)c1cc([N+](=O)[O-])ccc1Cl [Example 66, N-(2-Methoxycarbonylthiophen-3-yl)-(2-chloro-5-nitrophenyl)carboxamide] |
| 760 | O=C(Nc1c(Cl)ncnc1Cl)c1cc([N+](=O)[O-])ccc1Cl [Example 81, N-(4,6-Dichloropyrimidin-5-yl)-(2-chloro-5-nitrophenyl)carboxamide] |
| 260 | Cn1c(NC(=O)c2cc([N+](=O)[O-])ccc2Cl)nc2ccccc21 [Example 82, N-(1-Methylbenzimidazol-2-yl)-(2-chloro-5-nitrophenyl)carboxamide] |
| 28 | O=C(Nc1nncs1)c1cc([N+](=O)[O-])ccc1Cl [Example 85, N-(1,3,4-Thiadiazol-2-yl)-(2-chloro-5-nitrophenyl)carboxamide] |
| 11 | O=C(Nc1cccc2nsnc12)c1cc([N+](=O)[O-])ccc1Cl [Example 86, N-(2,1,3-Benzothiazol-4-yl)-(2-chloro-5-nitrophenyl)carboxamide] |
| 22 | O=C(Nc1ccc(S(=O)(=O)Nc2nccs2)cc1)c1cc([N+](=O)[O-])ccc1Cl [Example 96, N-[4-(Thiazol-2-yl)aminosulfonyl]phenyl-(2-chloro-5-nitrophenyl)carboxamide] |
| 34 | Cc1cc(NS(=O)(=O)c2ccc(NC(=O)c3cc([N+](=O)[O-])ccc3Cl)cc2)no1 [Example 99] |
| 43 | O=C(Nc1ccc(S(=O)(=O)Nc2ccc(Cl)nn2)cc1)c1cc([N+](=O)[O-])ccc1Cl [Example 102, N-[4-[(6-Chloropyridazin-3-yl)aminosulfonyl]phenyl]-(2-chloro-5-nitrophenyl)carboxamide] |
